Measured values taken from US11939344B2, “Spirocyclic compounds” (ASTRAZENECA AB, priority 2021, dated 2024).

Key:
HCT116 KO-MTAP cells [1] = experiment: PRMT5 cell SDMA assay, MTAP KO cells; type: cell-based; conditions: Homo sapiens
HCT116 WT cells [2] = experiment: PRMT5 cell SDMA assay, MTAP WT cells; type: cell-based; conditions: Homo sapiens
HCT116 KO-MTAP cells [3] = experiment: Cell proliferation assay (Alamar Blue), MTAP KO cells; type: cell-based; conditions: Homo sapiens
Description: (§1) Cell Proliferation Assays:
(§2) A day 0 plate is created in parallel but not dosed, after plating 4 μl of Alamar Blue (Thermo #DAL1100) and incubate for 3 h at 37 C, 5% CO2.
(§3) The dosed cell plates were then incubated for 5 days at 37° C. before adding Alamar blue and being read in the Envision following same protocol as for first plate.

HCT116 WT cells [4] = experiment: Cell proliferation assay (Alamar Blue), MTAP WT cells; type: cell-based; conditions: Homo sapiens, HCT-116, 120 h, 5 days
Description: as §1, §2, §3

[5] = molecular target: human heterooctameric PRMT5:MEP50 enzyme complex (Homo sapiens, UniProt O14744); experiment: biochemical
human heterooctameric PRMT5:MEP50 enzyme complex, sequence (O14744 whole entry): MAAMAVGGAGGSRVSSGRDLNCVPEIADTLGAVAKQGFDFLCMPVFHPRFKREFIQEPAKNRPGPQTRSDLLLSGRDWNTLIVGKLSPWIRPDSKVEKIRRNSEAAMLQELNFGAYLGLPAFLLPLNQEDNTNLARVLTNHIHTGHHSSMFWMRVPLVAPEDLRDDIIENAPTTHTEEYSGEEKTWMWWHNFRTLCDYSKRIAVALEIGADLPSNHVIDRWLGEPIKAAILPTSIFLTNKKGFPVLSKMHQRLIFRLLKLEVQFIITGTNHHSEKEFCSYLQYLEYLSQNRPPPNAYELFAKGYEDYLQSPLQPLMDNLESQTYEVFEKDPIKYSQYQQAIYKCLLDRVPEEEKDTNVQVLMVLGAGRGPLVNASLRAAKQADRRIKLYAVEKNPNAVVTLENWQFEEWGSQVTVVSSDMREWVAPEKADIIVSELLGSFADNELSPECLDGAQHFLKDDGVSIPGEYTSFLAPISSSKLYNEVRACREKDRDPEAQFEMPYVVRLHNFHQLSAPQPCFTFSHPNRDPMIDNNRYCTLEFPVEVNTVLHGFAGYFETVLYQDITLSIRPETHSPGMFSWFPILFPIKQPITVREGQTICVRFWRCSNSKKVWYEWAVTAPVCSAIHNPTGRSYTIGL
human heterooctameric PRMT5:MEP50 enzyme complex, sequence (Q9BQA1 whole entry partner): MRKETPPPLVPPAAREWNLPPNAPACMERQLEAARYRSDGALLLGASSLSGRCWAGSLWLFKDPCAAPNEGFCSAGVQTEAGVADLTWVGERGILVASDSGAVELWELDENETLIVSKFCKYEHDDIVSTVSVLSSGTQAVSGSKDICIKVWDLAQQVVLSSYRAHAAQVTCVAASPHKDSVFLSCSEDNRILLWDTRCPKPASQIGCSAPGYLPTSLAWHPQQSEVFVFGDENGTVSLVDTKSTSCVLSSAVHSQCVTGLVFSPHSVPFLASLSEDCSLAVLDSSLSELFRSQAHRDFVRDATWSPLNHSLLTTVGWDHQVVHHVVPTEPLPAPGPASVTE
Description: MTase-GIlo™ PRMT5 Luminescence Assays (PRMT5 Enzyme Assays)
An Mtase-Glo™ methyltransferase Luminescence assay was employed to monitor the conversion of S-Adenosyl methionine (SAM) to S-Adenosyl Homocysteine (SAH) by recombinant PRMT5:MEP50 enzyme complex in the presence or absence of the 5′-Methylthioadenosine (MTA). […] The reaction buffer contained 20 mM Bicine (pH 7.60), 25 mM NaCl, 1 mM DTT and 0.1% (w/v) CHAPS.
All wells were backfilled with the appropriate volume of DMSO to achieve a final concentration of 1% v/v in a 3 μl final assay volume.
After 5 h incubation in room temperature, 1 μL of 0.5% (v/v) TFA was added to each well to quench the methylation reaction.
Data was analysed and the IC50 values were calculated using the Genedata Screener® software.

[6] = HCT-116, 120 h, HCT116 MTAP KO, 5 days, read-out: Cell proliferation IC50 (μM) (MTAP KO)
[7] = HCT-116, column 6, read-out: Cell proliferation IC50 in MTAP KO cells
[8] = HCT-116, HCT116 MTAP KO, 48 hours, read-out: Cell SDMA IC50 (μM) (MTAP KO)
[9] = HCT-116, HCT116 MTAP WT, 48 hours, read-out: Cell SDMA IC50 (μM) (MTAP WT)

IC50 (HCT116 KO-MTAP cells [3]; [6]) [µM]	IC50 (HCT116 WT cells [4]) [µM]	IC50 (HCT116 KO-MTAP cells [1]; [8]) [µM]	IC50 (HCT116 WT cells [2]; [9]) [µM]	Compound	also measured
0.32	> 30	0.013	0.56	C#CCN1CC[C@@]2(C1=O)c1ccc(F)cc1C(=O)N2Cc1cc2nc(N)c(F)cc2[nH]1 [Example 3, (S)-2-((5-Amino-6-fluoro-1H-pyrrolo[3,2-b]pyridin-2-yl)methyl)-5-fluoro-1′-(prop-2-yn-1-yl)spiro[isoindoline-1,3′-pyrrolidine]-2′,3-dione]	IC50 (HCT116 KO-MTAP cells [1]; HCT-116, column 4, read-out: Cell SDMA IC50, MTAP knock out HCT116 cells): 0.013 µM; IC50 (HCT116 WT cells [2]; HCT-116, column 5, read-out: Cell SDMA IC50, HCT116 wild type cells): 0.56 µM; IC50 (HCT116 KO-MTAP cells [3]; [7]): 0.32 µM; IC50 [5]: 61 nM
1.9	> 30	0.025	> 1.5	Nc1nc2cc(CN3C(=O)c4cc(F)ccc4[C@]34CCN(CC(F)F)C4=O)[nH]c2cc1F [Example 8, (S)-2-((5-Amino-6-fluoro-1H-pyrrolo[3,2-b]pyridin-2-yl)methyl)-1′-(2,2-difluoroethyl)-5-fluorospiro[isoindoline-1,3′-pyrrolidine]-2′,3-dione]	
1.6	> 30	0.023	1.7	CN1CC[C@@]2(C1=O)c1ccc(F)cc1C(=O)N2Cc1cc2nc(N)c(F)cc2[nH]1 [Example 10, (S)-2-((5-Amino-6-fluoro-1H-pyrrolo[3,2-b]pyridin-2-yl)methyl)-5-fluoro-1′-methylspiro[isoindoline-1,3′-pyrrolidine]-2′,3-dione]	
		0.0084	0.34	Nc1nc2cc(CN3C(=O)c4cc(F)ccc4[C@]34CCN(Cc3ccno3)C4=O)[nH]c2cc1F [Example 13, (S)-2-((5-Amino-6-fluoro-1H-pyrrolo[3,2-b]pyridin-2-yl)methyl)-5-fluoro-1′-(isoxazol-5-ylmethyl)spiro[isoindoline-1,3′-pyrrolidine]-2′,3-dione]	
		0.006	0.088	Nc1nc2cc(CN3C(=O)c4cc(F)ccc4[C@]34CCN(Cc3cc(C(F)(F)F)cnn3)C4=O)[nH]c2cc1F [Example 14, (S)-2-((5-Amino-6-fluoro-1H-pyrrolo[3,2-b]pyridin-2-yl)methyl)-5-fluoro-1′-((5-(trifluoromethyl)pyridazin-3-yl)methyl)spiro[isoindoline-1,3′-pyrrolidine]-2′,3-dione]	
		0.0036	0.12	Cn1ncc2cc(CN3CC[C@@]4(C3=O)c3ccc(F)cc3C(=O)N4Cc3cc4nc(N)c(F)cc4[nH]3)ccc21 [Example 15, (S)-2-((5-Amino-6-fluoro-1H-pyrrolo[3,2-b]pyridin-2-yl)methyl)-5-fluoro-1′-((1-methyl-1H-indazol-5-yl)methyl)spiro[isoindoline-1,3′-pyrrolidine]-2′,3-dione]	
		0.0051	0.23	Nc1nc2cc(CN3C(=O)c4cc(F)ccc4[C@]34CCN(Cc3nc5ccccc5o3)C4=O)[nH]c2cc1F [Example 16, (S)-2-((5-Amino-6-fluoro-1H-pyrrolo[3,2-b]pyridin-2-yl)methyl)-1′-(benzo[d]oxazol-2-ylmethyl)-5-fluorospiro[isoindoline-1,3′-pyrrolidine]-2′,3-dione]	
		0.0068	0.42	Nc1nc2cc(CN3C(=O)c4cc(F)ccc4[C@]34CCN(CCOc3ccc(F)cc3)C4=O)[nH]c2cc1F [Example 17, (S)-2-((5-Amino-6-fluoro-1H-pyrrolo[3,2-b]pyridin-2-yl)methyl)-5-fluoro-1′-(2-(4-fluorophenoxy)ethyl)spiro[isoindoline-1,3′-pyrrolidine]-2′,3-dione]	
		0.0066	0.37	Cc1ncsc1CCN1CC[C@@]2(C1=O)c1ccc(F)cc1C(=O)N2Cc1cc2nc(N)c(F)cc2[nH]1 [Example 18, (S)-2-((5-Amino-6-fluoro-1H-pyrrolo[3,2-b]pyridin-2-yl)methyl)-5-fluoro-1′-(2-(4-methylthiazol-5-yl)ethyl)spiro[isoindoline-1,3′-pyrrolidine]-2′,3-dione]	
		0.0029	0.16	Nc1nc2cc(CN3C(=O)c4cc(F)ccc4[C@]34CCN(CC#CC3CC3)C4=O)[nH]c2cc1F [Example 20, (S)-2-((5-Amino-6-fluoro-1H-pyrrolo[3,2-b]pyridin-2-yl)methyl)-1′-(3-cyclopropylprop-2-yn-1-yl)-5-fluorospiro[isoindoline-1,3′-pyrrolidine]-2′,3-dione]	
		0.086	3.2	Nc1nc2cc(CN3C(=O)c4c(Cl)cccc4[C@]34CCN(Cc3ccc(F)cc3)C4=O)[nH]c2cc1F [Example 21, (S)-2-((5-Amino-6-fluoro-1H-pyrrolo[3,2-b]pyridin-2-yl)methyl)-4-chloro-1′-(4-fluorobenzyl)spiro[isoindoline-1,3′-pyrrolidine]-2′,3-dione]	
		0.16	12	Cc1cc(F)cc2c1[C@]1(CCN(C)C1=O)N(Cc1cc3nc(N)c(F)cc3[nH]1)C2=O [Example 23, (S)-2-((5-Amino-6-fluoro-1H-pyrrolo[3,2-b]pyridin-2-yl)methyl)-5-fluoro-1′,7-dimethylspiro[isoindoline-1,3′-pyrrolidine]-2′,3-dione]	
		0.032	1.2	COc1cc(F)cc2c1[C@]1(CCN(C)C1=O)N(Cc1cc3nc(N)c(F)cc3[nH]1)C2=O [Example 24, (S)-2-((5-Amino-6-fluoro-1H-pyrrolo[3,2-b]pyridin-2-yl)methyl)-5-fluoro-7-methoxy-1′-methylspiro[isoindoline-1,3′-pyrrolidine]-2′,3-dione]	
0.29	2.3	0.0031	0.093	CC1(CN2CC[C@@]3(C2=O)c2ccc(F)cc2C(=O)N3Cc2cc3nc(N)cc(C#N)c3[nH]2)CC1 [Example 26, (S)-5-Amino-2-((5-fluoro-1′-((1-methylcyclopropyl)methyl)-2′,3-dioxospiro[isoindoline-1,3′-pyrrolidin]-2-yl)methyl)-1H-pyrrolo[3,2-b]pyridine-7-carbonitrile]	
0.36	> 30	0.0047	0.17	Nc1nc2cc(CN3C(=O)c4cc(F)ccc4[C@]34CCN(CCOC(F)(F)F)C4=O)[nH]c2cc1Cl [Example 27, (S)-2-((5-Amino-6-chloro-1H-pyrrolo[3,2-b]pyridin-2-yl)methyl)-5-fluoro-1′-(2-(trifluoromethoxy)ethyl)spiro[isoindoline-1,3′-pyrrolidine]-2′,3-dione]	
0.13	1.4	0.0028	0.071	Cc1cc(N)nc2[nH]c(CN3C(=O)c4cc(F)ccc4[C@]34CCN(Cc3cc(F)c(F)cc3F)C4=O)cc12 [Example 28, (S)-2-((6-Amino-4-methyl-1H-pyrrolo[2,3-b]pyridin-2-yl)methyl)-5-fluoro-1′-(2,4,5-trifluorobenzyl)spiro[isoindoline-1,3′-pyrrolidine]-2′,3-dione]	

Compound	IC50 (HCT116 KO-MTAP cells [3]; [6]) [µM]	IC50 (HCT116 WT cells [4]) [µM]	IC50 (HCT116 KO-MTAP cells [1]; [8]) [µM]	IC50 (HCT116 WT cells [2]; [9]) [µM]	also measured
Nc1nc2cc(CN3C(=O)c4cc(F)ccc4[C@]34CCN(Cc3ccc(F)cc3)C4=O)[nH]c2cc1F [Example 1, (S)-2-((5-Amino-6-fluoro-1H-pyrrolo[3,2-b]pyridin-2-yl)methyl)-5-fluoro-1′-(4-fluorobenzyl)spiro[isoindoline-1,3′-pyrrolidine]-2′,3-dione]	0.16	> 30			IC50 (HCT116 KO-MTAP cells [1]; HCT-116, 48 h, read-out: Cell SDMA IC50 (μM) (MTAP KO)): 0.0053 µM; IC50 (HCT116 KO-MTAP cells [1]; HCT-116, read-out: Cell SDMA IC50, MTAP knock out HCT116 cells): 0.0053 µM; IC50 (HCT116 WT cells [2]; HCT-116, 48 h, read-out: Cell SDMA IC50 (μM) (MTAP WT)): 0.29 µM; IC50 (HCT116 WT cells [2]; HCT-116, read-out: Cell SDMA IC50, HCT116 wild type cells): 0.29 µM; IC50 (HCT116 KO-MTAP cells [3]; [7]): 0.16 µM
